# US9157904B2, “Wnt antagonists and methods of treatment and screening” (OncoMed Pharmaceuticals, Inc., priority 2010, dated 2015)
# How the values were obtained:
# [1] = system: PN4 pancreatic tumors; experiment: In vivo limiting dilution assay of treated PN4 tumors; set-up: species or system NOD/SCID mice; details: day 75 after injection of 30, 90, 270 cells, control 7 out of 30
# From the text: Limiting dilution assays (LDA) can be used to assess the effect of therapeutic agents on solid tumor cancer stem cells and on the tumorigenicity of a tumor comprising the cancer stem cells. Such assays can be used to determine the frequency of cancer stem cells in tumors from animals treated with the FZD8-Fc fusion protein or other agent and to compare that frequency to the frequency of cancer stem cells in tumors from control animals. Control and treated tumors from the PN4 xenograft study described above were harvested at the end of the study (day 85). The tumors were processed and dissociated into single cells. […] The human cells in the suspension were harvested, counted, and stained for cell surface markers and appropriate cell doses (30, 90, and 270 cells) in FACS buffer were mixed in a 1:1 mixture with Matrigel and injected subcutaneously in NOD/SCID mice (10 mice per cell dose per treatment group). […] At the desired time point, the percentage of mice with detectable tumors was determined in all groups injected with FZD8-Fc-treated tumor cells and compared to the percentage of mice with detectable tumors in the controls. For example, the number of mice injected with 125 control antibody-treated tumor cells that have detectable tumors is determined and compared to the number of mice injected with 125 FZD8-Fc treated tumor cells that have detectable tumors. […]
# [2] = system: PN13 tumors; experiment: Alcian blue and Ki67 staining of treated PN13 tumors; type: in vivo, NOD/SCID mice; details: FZD8-Fc 15 mg/kg i.p. twice weekly, 19 days, vs control antibody
# Procedure: The cell differentiation capability of FZD8-Fc was also evaluated in the OMP-PN13 pancreas tumor xenograft model. Dissociated OMP-PN13 cells (50,000 per animal) were injected subcutaneously into 6-8 week old male NOD/SCID mice. Tumor growth was monitored weekly and tumor measurements were initiated once tumors were palpable. On day 40 mice with average tumor volume of 114 mm^3 were randomized into 4 groups of 10 animals each. Animals were injected with either control antibody or FZD8-Fc (15 mg/kg). Administration of the FZD8-Fc and control antibody was performed via injection into the intraperitoneal cavity, twice weekly. After 19 days of treatment, the tumors were excised and immunohistochemistry analysis was performed using standard techniques. Briefly, tumors were fixed in formalin, embedded in paraffin, and tumor sections of 4 μm thickness were cut. After deparaffinization and hydration, the tumor sections were subjected to an antigen retrieval process in Tris buffer (pH 9.5). Sections were incubated with hydrogen peroxide (Sigma-Aldrich, St Louis, Mo.) for 10 minutes to block endogenous peroxidases. Anti-Ki67 antibody (Dako, clone MIB-1) at 1:200 dilution in blocking buffer (3% NHS, 1% BSA, 0.1% Tween-20, in PBS) was added to each section and incubated for 1 hour. Slides were rinsed 3 times in PBST for 5 minutes each. […]
# [3] = system: PN4 tumors; experiment: FACS for ESA, CD44 and CD201 on PN4 tumors treated with variants; type: in vivo, NOD/SCID mice; details: vs control antibody
# Procedure: Pancreatic tumor cells from the tumor-bearing mice described above were harvested and minced into approximately 1 mm^3 fragments, followed by enzymatic digestion at 1 gram per 10 ml of 300 μg/ml collagenase and 200 U/ml DNase I for 2 hours at 37° C./5% CO2 with intermittent mixing with a 10 ml pipet to disperse cells. Digestion was stopped by adding an equal volume of FACS buffer (1× Hanks Buffered Saline Solution (HBSS), 2% heat-inactivated Fetal Calf Serum (FCS) and 2 mM HEPES pH 7.4). Cells were filtered through 40 μm nylon filters and collected by centrifugation at 150×g for 5 minutes. Red blood cells were lysed in a hypotonic buffer containing ammonium chloride for 2 minutes on ice, and the cells were washed again with excess FACS buffer, and resuspended with FACS buffer at 1×10^7 cells/ml.
# The freshly prepared single cell suspensions were stained for 20 minutes on ice with biotinylated anti-mouse H-2Kd (clone SF1-1.1, Biolegend, San Diego, Calif.) at 5 μg/ml, biotinylated anti-mouse CD45 (30-F11, Biolegend) at […], and streptavidin-PerCP-Cy5.5 (eBioscience, San Diego, Calif.) at 1:200 dilution. Unbound antibody was removed by washing twice with 10 volume of FACS buffer. […]
substance,measurement,setting,value
54F03: Fri domain of human FZD8 fused to human IgG1 Fc with GRA linker; SEQ ID NO:1,tumor take rate,[1],3 mice out of 30 mice
same,cells expressing sialomucins (alcian blue),[2],increase in cells expressing sialomucins
same,proliferating cells denoted by expression of Ki67,[2],decrease in proliferating cells
same,percentage of CD44^hi cells,[3],decreased the percentage of CD44^hi cells
same,percentage of CD201^+CD44^+ cells,[3],decreased the percentage of CD201^+CD44^+ cells
